Experimental data as given in US5914319A, “Antithrombotic agents” (Eli Lilly and Company, priority 1995, dated 1999).
Where a name gives a salt, the structure may show the parent alone.

Assays:
Assay type in all cases: biochemical
[1] = test system: Human plasma; assay: Human plasma anticoagulation, activated partial thromboplastin time (APTT); conditions: concentration required to double the APTT, linear extrapolation
Experimental: (§1) Dog plasma and rat plasma is obtained from conscious mixed-breed hounds (either sex, Hazelton-LRE, Kalamazoo, Mich., U.S.A.) or from anesthetized male Sprague-Dawley rats (Harlan Sprague-Dawley, Inc., Indianapolis, Ind., U.S.A.) by venipuncture into 3.8 percent citrate. Fibrinogen is prepared from in-date ACD human blood as the fraction I-2 according to previous procedures and specifications. […] Human fibrinogen is also purchased as 98 percent pure/plasmin free from American Diagnostica, Greenwich, Conn. Coagulation reagents ACTIN, Thromboplastin, and Human plasma are from Baxter Healthcare Corp., Dade Division, Miami, Fla. Bovine thrombin from Parke-Davis ([…], Mich.) is used for coagulation assays in plasma.
(§2) Coagulation assay procedures are as previously described. […] A CoAScreener coagulation instrument (American LABor, Inc.) is used for all coagulation assay measurements. The prothrombin time (PT) is measured by adding 0.05 mL saline and 0.05 mL Thromboplastin-C reagent to 0.05 mL test plasma. The activated partial thromboplastin time (APTT) is measured by incubation of 0.05 mL test plasma with 0.05 mL Actin reagent for 120 seconds followed by 0.05 mL CaCl2 (0.02M). The thrombin time (TT) is measured by adding 0.05 mL saline and 0.05 mL thrombin (10 NIH units/mL) to 0.05 mL test plasma. The compounds of Formula I are added to human or animal plasma over a wide range of concentrations to determine prolongation effects on the APTT, PT, and TT assays. Linear extrapolations are performed to estimate the concentrations required to double the clotting time for each assay.

[2] = test system: Human plasma; assay: Human plasma anticoagulation, prothrombin time (PT); conditions: concentration required to double the PT, linear extrapolation
Experimental: as §1, §2

[3] = test system: Human plasma; assay: Human plasma anticoagulation, thrombin time (TT); conditions: concentration required to double the thrombin time, linear extrapolation
Experimental: as §1, §2

Row | Compound | Human Plasma Anticoagulation 2× Clotting time (ng/mL) APTT [1] | Human Plasma Anticoagulation 2× Clotting time (ng/mL) PT [2] | Human Plasma Anticoagulation 2× Clotting time (ng/mL) TT [3]
1 | 1-Piq-Pro-p-NHCH2 C6 H4 C(NH)NH2.2HCl [Example 18] | 79 ng/mL | 170 ng/mL | 7 ng/mL
2 | N=C(N)c1ccc(CNC(=O)[C@@H]2C[C@H](Oc3ccccc3)CN2C(=O)[C@H]2CCCCN2)cc1 (relative stereo) [Example 22, D-hPro-Pro(4-cis-PhO)-p-NHCH2 C6 H4 C(NH)NH2.2HCl] | 2,300 ng/mL | 1,000 ng/mL | 170 ng/mL
3 | N=C(N)c1ccc(CNC(=O)[C@@H]2C[C@@H]3CCCC[C@@H]3N2C(=O)[C@H]2C[C@H]3CCCC[C@H]3CN2)cc1 (relative stereo) [Example 43, D-3-Piq-cis-Ohi-p-NHCH2 C6 H4 C(NH)NH2.2HCl] | 1,100 ng/mL | 930 ng/mL | 280 ng/mL
4 | CCS(=O)(=O)N[C@H](Cc1ccccc1)C(=O)N1[C@H](C(=O)NCc2ccc(C(=N)N)cc2)C[C@@H]2CCCC[C@@H]21 (relative stereo) [Example 45, EtSO2 -Phe-cis-Ohi-p-NHCH2 C6 H4 C(NH)NH2.HCl] | 200 ng/mL | 330 ng/mL | 8 ng/mL
5 | N=C(N)c1ccc(CNC(=O)[C@@H]2C[C@@H]3CCCC[C@@H]3N2C(=O)[C@@H](Cc2ccccc2)NCC(=O)O)cc1 (relative stereo) [Example 47, HOOCCH2 -D-Phe-cis-Ohi-p-NHCH2 C6 H4 C(NH)NH2.HCl] | 140 ng/mL | 270 ng/mL | 12. ng/mL
6 | Cl.N=C(N)c1cccc(CNC(=O)[C@@H]2CCCN2C(=O)[C@H](N)Cc2ccccc2)c1 [Example 16, D-Phe-Pro-m-NHCH2 C6 H4 C(NH)NH2.0.75HCl] | 8,600 ng/mL | 8,500 ng/mL | 650 ng/mL
7 | N=C(N)c1ccc(CNC(=O)[C@@H]2CCCN2C(=O)[C@H]2C[C@H]3CCCC[C@H]3CN2)cc1 [Example 19, D-3-Piq-Pro-p-NHCH2 C6 H4 C(NH)NH2.3HCl] | 300 ng/mL | 540 ng/mL | 58 ng/mL
8 | CCS(=O)(=O)N[C@H](Cc1ccccc1)C(=O)N1CCC[C@H]1C(=O)NCc1cccc(C(=N)N)c1 [Example 24, EtSO2 -D-Phe-Pro-m-NHCH2 --C6 H4 C(=NH)NH2.HCl] | 25,900 ng/mL | 25,000 ng/mL | 1,000 ng/mL
9 | N=C(N)c1cccc(CNC(=O)[C@@H]2CCCN2C(=O)[C@@H]2NCC[C@@H]3CCCC[C@@H]32)c1 [Example 25, D-1-Piq-Pro-m-NHCH2 --C6 H4 C(=NH)NH2.HCl] | 34,600 ng/mL | 40,400 ng/mL | 1,430 ng/mL
10 | CCS(=O)(=O)N[C@H](Cc1ccccc1)C(=O)N1CCC[C@H]1C(=O)NCCc1ccc(C(=N)N)cc1 [Example 26, EtSO2 -D-Phe-Pro-p-NHCH2 CH2 --C6 H4 C(=NH)NH2.HCl] | 870 ng/mL | 750 ng/mL | 37 ng/mL
